Bridge positions count the residues as written; N and C are the ends. Peptide text beside a SMILES is read from it.
Key:
Type in all cases: cell-based
hNaV1.7 = target: T1, hNaV1.7 (Homo sapiens, UniProt Q15858); test: Automated whole-cell patch-clamp (QPatch 16X), hNaV1.7; settings: for IC50: HEK293 cells expressing hNaV1.7 + β1 subunit, QPatch 16X, holding −80 mV, step to 0 mV, peptide incubated 2 min, 0.1% BSA, mean, SEM and n (3-9); for Loss (reduction) in potency vs rSsp1a at hNaV1.7: relative to wild type rSsp1a
T1 construct: host or cells: HEK293
T1 sequence (Q15858 whole entry): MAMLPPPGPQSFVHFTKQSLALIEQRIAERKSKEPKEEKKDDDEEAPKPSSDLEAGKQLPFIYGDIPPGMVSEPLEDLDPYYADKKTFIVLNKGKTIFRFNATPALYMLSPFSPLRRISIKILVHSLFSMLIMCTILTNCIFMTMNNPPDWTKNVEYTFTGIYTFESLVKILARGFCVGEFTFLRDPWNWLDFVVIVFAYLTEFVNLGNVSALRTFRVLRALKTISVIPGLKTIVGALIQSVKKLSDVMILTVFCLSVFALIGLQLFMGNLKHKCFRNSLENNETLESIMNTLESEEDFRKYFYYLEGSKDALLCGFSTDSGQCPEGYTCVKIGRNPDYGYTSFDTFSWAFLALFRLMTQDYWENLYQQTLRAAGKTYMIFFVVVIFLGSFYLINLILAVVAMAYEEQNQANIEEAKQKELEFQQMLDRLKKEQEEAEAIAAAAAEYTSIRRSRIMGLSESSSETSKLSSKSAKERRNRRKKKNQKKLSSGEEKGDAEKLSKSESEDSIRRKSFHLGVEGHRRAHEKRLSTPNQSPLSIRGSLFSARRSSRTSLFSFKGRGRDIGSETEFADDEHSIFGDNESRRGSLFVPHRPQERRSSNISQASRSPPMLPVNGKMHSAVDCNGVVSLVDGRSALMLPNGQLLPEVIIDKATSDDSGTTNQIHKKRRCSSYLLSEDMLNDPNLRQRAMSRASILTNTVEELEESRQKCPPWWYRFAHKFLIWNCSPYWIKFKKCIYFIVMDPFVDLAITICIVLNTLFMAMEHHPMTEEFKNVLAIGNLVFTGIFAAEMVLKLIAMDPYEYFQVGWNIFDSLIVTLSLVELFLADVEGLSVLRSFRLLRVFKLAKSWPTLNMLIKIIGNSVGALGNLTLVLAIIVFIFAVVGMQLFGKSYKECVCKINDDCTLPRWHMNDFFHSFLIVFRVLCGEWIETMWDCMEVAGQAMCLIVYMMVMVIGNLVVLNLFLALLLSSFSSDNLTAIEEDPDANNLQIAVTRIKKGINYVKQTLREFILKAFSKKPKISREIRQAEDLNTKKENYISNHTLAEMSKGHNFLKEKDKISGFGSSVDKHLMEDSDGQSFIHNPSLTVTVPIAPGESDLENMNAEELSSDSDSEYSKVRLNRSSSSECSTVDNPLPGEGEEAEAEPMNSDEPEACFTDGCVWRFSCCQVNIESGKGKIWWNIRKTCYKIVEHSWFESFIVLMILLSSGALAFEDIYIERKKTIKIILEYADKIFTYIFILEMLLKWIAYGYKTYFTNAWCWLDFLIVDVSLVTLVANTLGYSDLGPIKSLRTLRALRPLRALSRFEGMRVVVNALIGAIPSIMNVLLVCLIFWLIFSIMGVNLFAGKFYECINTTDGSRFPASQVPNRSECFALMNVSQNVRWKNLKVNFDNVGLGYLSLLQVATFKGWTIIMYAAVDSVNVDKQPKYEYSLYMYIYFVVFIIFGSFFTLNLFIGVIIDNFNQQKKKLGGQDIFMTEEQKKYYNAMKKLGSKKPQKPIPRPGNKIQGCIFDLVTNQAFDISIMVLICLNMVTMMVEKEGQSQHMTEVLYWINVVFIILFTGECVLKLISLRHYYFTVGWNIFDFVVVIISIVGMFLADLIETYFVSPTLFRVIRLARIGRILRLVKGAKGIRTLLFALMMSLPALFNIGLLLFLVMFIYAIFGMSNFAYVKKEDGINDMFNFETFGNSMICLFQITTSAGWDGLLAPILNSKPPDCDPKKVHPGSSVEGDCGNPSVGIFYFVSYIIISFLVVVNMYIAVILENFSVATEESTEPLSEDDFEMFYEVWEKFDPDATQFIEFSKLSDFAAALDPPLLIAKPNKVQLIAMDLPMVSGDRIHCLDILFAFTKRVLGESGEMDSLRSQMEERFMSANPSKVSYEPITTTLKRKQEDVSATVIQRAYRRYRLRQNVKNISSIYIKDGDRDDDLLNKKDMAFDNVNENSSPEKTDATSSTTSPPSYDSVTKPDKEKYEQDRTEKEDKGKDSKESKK
T1 sequence (Q07699 19-218, further chain): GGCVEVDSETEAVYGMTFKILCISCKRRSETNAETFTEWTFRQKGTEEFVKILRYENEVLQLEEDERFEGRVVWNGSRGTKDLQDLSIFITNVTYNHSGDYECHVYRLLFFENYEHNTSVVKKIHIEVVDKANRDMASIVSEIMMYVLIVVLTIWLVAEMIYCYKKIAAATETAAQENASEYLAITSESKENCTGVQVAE
Outline: (§1)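 HEK293 cells stably expressing the channel (human subtypes with β1 subunit), held at −80 mV; 2 min peptide pre-incubation, then 20 ms steps to 0 mV after a 200 ms −120 mV conditioning pulse. Extracellular pH 7.3 with 20 mM TEA-Cl, CsF-based pipette solution, 0.1% BSA; IC50 from four-parameter Hill fit.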

hNaV1.2 = target: T2, hNaV1.2 (Homo sapiens, UniProt Q99250); test: Automated whole-cell patch-clamp (QPatch 16X), hNaV1.2; settings: for IC50: HEK293 cells expressing hNaV1.2 + β1 subunit, QPatch 16X, holding −80 mV, step to 0 mV, peptide incubated 2 min, 0.1% BSA, mean, SEM and n (2-7); for Loss (reduction) in potency vs rSsp1a at hNaV1.2: relative to wild type rSsp1a
T2 construct: host or cells: HEK293
T2 sequence (Q07699 19-218): as the sequence (Q07699 19-218, further chain) above
T2 sequence (Q99250 whole entry): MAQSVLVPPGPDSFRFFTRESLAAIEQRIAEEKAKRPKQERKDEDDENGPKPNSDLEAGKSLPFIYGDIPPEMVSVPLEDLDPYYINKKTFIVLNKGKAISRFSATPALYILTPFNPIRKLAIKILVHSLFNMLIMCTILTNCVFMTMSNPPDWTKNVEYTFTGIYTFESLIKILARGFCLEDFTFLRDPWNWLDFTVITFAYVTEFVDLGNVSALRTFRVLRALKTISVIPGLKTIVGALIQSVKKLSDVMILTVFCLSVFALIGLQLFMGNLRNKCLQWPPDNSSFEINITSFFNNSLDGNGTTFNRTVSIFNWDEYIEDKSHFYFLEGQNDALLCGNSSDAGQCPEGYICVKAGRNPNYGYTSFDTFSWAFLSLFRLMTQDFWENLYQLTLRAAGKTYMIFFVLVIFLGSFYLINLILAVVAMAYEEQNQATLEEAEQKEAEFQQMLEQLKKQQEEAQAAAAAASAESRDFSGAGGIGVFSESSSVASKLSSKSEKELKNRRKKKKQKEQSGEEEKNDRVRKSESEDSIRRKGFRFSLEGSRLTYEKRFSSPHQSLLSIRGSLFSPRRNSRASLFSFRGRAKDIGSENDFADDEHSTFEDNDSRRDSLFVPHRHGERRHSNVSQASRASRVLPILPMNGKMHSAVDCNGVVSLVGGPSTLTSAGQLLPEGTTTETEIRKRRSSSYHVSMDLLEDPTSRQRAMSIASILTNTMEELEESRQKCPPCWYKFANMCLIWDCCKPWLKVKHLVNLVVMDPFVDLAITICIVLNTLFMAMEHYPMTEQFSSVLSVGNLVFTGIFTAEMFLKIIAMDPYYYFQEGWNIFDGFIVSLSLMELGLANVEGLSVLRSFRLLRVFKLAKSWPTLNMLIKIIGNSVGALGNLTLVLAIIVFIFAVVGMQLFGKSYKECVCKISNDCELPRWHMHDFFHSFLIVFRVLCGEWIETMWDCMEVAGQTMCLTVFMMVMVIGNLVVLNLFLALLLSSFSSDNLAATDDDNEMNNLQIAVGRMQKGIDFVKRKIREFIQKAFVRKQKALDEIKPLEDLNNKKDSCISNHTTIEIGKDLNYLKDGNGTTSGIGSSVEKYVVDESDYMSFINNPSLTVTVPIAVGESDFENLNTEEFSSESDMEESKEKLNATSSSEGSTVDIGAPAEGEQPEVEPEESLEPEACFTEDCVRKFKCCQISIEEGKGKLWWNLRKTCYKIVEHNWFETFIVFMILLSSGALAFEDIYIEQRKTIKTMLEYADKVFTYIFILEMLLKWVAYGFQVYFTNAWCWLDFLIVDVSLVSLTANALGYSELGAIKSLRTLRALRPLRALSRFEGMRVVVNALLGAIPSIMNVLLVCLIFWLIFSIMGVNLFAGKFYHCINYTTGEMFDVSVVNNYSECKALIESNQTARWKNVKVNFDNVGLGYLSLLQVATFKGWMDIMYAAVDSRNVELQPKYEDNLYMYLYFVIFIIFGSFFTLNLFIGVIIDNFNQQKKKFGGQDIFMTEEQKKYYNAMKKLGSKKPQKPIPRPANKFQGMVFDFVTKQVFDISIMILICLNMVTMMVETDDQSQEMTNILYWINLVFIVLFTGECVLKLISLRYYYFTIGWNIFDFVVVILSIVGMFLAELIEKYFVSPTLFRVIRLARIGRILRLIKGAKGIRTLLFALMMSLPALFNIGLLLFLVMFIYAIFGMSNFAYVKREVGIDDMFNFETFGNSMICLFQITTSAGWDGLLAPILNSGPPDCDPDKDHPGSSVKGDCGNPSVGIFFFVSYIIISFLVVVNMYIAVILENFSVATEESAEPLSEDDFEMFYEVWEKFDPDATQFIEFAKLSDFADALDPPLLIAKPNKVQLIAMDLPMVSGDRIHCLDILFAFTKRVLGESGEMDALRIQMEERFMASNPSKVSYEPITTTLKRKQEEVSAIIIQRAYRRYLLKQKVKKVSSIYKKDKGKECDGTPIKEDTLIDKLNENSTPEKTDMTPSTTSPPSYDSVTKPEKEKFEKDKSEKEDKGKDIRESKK
Outline: as §1

hNaV1.3 = target: T3, hNaV1.3 (Homo sapiens, UniProt Q9NY46); test: Automated whole-cell patch-clamp (QPatch 16X), hNaV1.3; settings: for IC50: HEK293 cells expressing hNaV1.3 + β1 subunit, QPatch 16X, holding −80 mV, step to 0 mV, peptide incubated 2 min, 0.1% BSA, mean, SEM and n (3-12)
T3 construct: host or cells: HEK293
Outline: as §1

CC(C)C[C@H](NC(=O)[C@H](CC(=O)O)NC(=O)[C@H](Cc1ccc(O)cc1)NC(=O)[C@H](CCCNC(=N)N)NC(=O)[C@@H]1CSSC[C@@H]2NC(=O)[C@H](CCCCN)NC(=O)[C@H](CC(N)=O)NC(=O)[C@H](CC(N)=O)NC(=O)[C@H](CC(N)=O)NC(=O)[C@@H]3CCCN3C(=O)[C@H](CC(=O)O)NC(=O)[C@@H]3CSSC[C@H](NC(=O)[C@H](C(C)C)NC(=O)[C@H](Cc4ccc(O)cc4)NC(=O)CNC(=O)[C@H](CCC(=O)O)NC(=O)[C@H](CSSC[C@H](NC(=O)[C@H](CC(=O)O)NC(=O)CN)C(=O)N[C@@H](CC(C)C)C(=O)NCC(=O)N[C@@H](Cc4c[nH]c5ccccc45)C(=O)N[C@@H](Cc4ccccc4)C(=O)N[C@@H](CO)C(=O)NCC(=O)N3)NC2=O)C(=O)N[C@@H](Cc2c[nH]cn2)C(=O)N[C@@H](C)C(=O)N[C@@H](CCCCN)C(=O)N[C@@H](Cc2ccc(O)cc2)C(=O)N2CCC[C@H]2C(=O)N[C@@H](Cc2c[nH]c3ccccc23)C(=O)N1)C(=O)O [W24A] (H-GDCLGWFSGCDPNNNKCCEGYVCHAKYPWCRYDL-OH; disulfide 3-18, 10-23, 17-30 (inferred); N-terminus and C-terminus assumed)
IC50 (hNaV1.7): > 1000 nM | Loss (reduction) in potency vs rSsp1a at hNaV1.7 (hNaV1.7): ≥ 10 fold | IC50 (hNaV1.2): > 1000 nM | Loss (reduction) in potency vs rSsp1a at hNaV1.2 (hNaV1.2): ≥ 10 fold | IC50 (hNaV1.3): > 1000 nM

CC(C)C[C@H](NC(=O)[C@H](CC(=O)O)NC(=O)[C@H](Cc1ccc(O)cc1)NC(=O)[C@H](CCCNC(=N)N)NC(=O)[C@@H]1CSSC[C@@H]2NC(=O)[C@H](CCCCN)NC(=O)[C@H](CC(N)=O)NC(=O)[C@H](CC(N)=O)NC(=O)[C@H](CC(N)=O)NC(=O)[C@@H]3CCCN3C(=O)[C@H](CC(=O)O)NC(=O)[C@@H]3CSSC[C@H](NC(=O)[C@H](C(C)C)NC(=O)[C@H](Cc4ccc(O)cc4)NC(=O)CNC(=O)[C@H](CCC(=O)O)NC(=O)[C@H](CSSC[C@H](NC(=O)[C@H](CC(=O)O)NC(=O)CN)C(=O)N[C@@H](CC(C)C)C(=O)NCC(=O)N[C@@H](Cc4c[nH]c5ccccc45)C(=O)N[C@@H](Cc4ccccc4)C(=O)N[C@@H](CO)C(=O)NCC(=O)N3)NC2=O)C(=O)N[C@@H](Cc2c[nH]cn2)C(=O)N[C@@H](CCCNC(=N)N)C(=O)N[C@@H](CCCCN)C(=O)N[C@@H](Cc2ccc(O)cc2)C(=O)N2CCC[C@H]2C(=O)N[C@@H](Cc2c[nH]c3ccccc23)C(=O)N1)C(=O)O [W24R]
inhibition at 3 µM (hNaV1.7; 3 µM peptide, QPatch): ~50% | IC50 (hNaV1.7): > 3000 nM | inhibition at 3 µM (hNaV1.2; 3 µM peptide, QPatch, partial inhibition): ~65% | IC50 (hNaV1.2): 423 nM | inhibition at 3 µM (hNaV1.3; 3 µM peptide, QPatch, read-out: Inhibition (block) of hNaV1.3 at 3 µM): ~75% | IC50 (hNaV1.3): 1190 nM

CC(C)C[C@H](NC(=O)[C@H](CC(=O)O)NC(=O)[C@H](Cc1ccc(O)cc1)NC(=O)[C@H](CCCNC(=N)N)NC(=O)[C@@H]1CSSC[C@@H]2NC(=O)[C@H](CCCCN)NC(=O)[C@H](CC(N)=O)NC(=O)[C@H](CC(N)=O)NC(=O)[C@H](CC(N)=O)NC(=O)[C@@H]3CCCN3C(=O)[C@H](CC(=O)O)NC(=O)[C@@H]3CSSC[C@H](NC(=O)[C@H](C(C)C)NC(=O)[C@H](Cc4ccc(O)cc4)NC(=O)CNC(=O)[C@H](CCC(=O)O)NC(=O)[C@H](CSSC[C@H](NC(=O)[C@H](CC(=O)O)NC(=O)CN)C(=O)N[C@@H](CC(C)C)C(=O)NCC(=O)N[C@@H](Cc4c[nH]c5ccccc45)C(=O)N[C@@H](Cc4ccccc4)C(=O)N[C@@H](CO)C(=O)NCC(=O)N3)NC2=O)C(=O)N[C@@H](Cc2c[nH]cn2)C(=O)N[C@@H](CO)C(=O)N[C@@H](CCCCN)C(=O)N[C@@H](Cc2ccc(O)cc2)C(=O)N2CCC[C@H]2C(=O)N[C@@H](Cc2c[nH]c3ccccc23)C(=O)N1)C(=O)O [W24S]
IC50 (hNaV1.7): > 3000 nM | IC50 (hNaV1.2): 1460 nM | IC50 (hNaV1.3): > 3000 nM

CC(C)C[C@H](NC(=O)[C@H](CC(=O)O)NC(=O)[C@H](Cc1ccc(O)cc1)NC(=O)[C@H](CCCNC(=N)N)NC(=O)[C@@H]1CSSC[C@@H]2NC(=O)[C@H](CCCCN)NC(=O)[C@H](CC(N)=O)NC(=O)[C@H](CC(N)=O)NC(=O)[C@H](CC(N)=O)NC(=O)[C@@H]3CCCN3C(=O)[C@H](CC(=O)O)NC(=O)[C@@H]3CSSC[C@H](NC(=O)[C@H](C(C)C)NC(=O)[C@H](Cc4ccc(O)cc4)NC(=O)CNC(=O)[C@H](CCC(=O)O)NC(=O)[C@H](CSSC[C@H](NC(=O)[C@H](CC(=O)O)NC(=O)CN)C(=O)N[C@@H](CC(C)C)C(=O)NCC(=O)N[C@@H](Cc4c[nH]c5ccccc45)C(=O)N[C@@H](Cc4ccccc4)C(=O)N[C@@H](CO)C(=O)NCC(=O)N3)NC2=O)C(=O)N[C@@H](Cc2c[nH]cn2)C(=O)N[C@@H](Cc2c[nH]c3ccccc23)C(=O)N[C@@H](CCCCN)C(=O)N[C@@H](Cc2ccc(O)cc2)C(=O)N2CCC[C@H]2C(=O)N[C@@H](C)C(=O)N1)C(=O)O [W28A] (H-GDCLGWFSGCDPNNNKCCEGYVCHWKYPACRYDL-OH; disulfide 3-18, 10-23, 17-30 (inferred); N-terminus and C-terminus assumed)
IC50 (hNaV1.7): > 3000 nM | Loss (reduction) in potency vs rSsp1a at hNaV1.7 (hNaV1.7): ≥ 10 fold | IC50 (hNaV1.2): > 3000 nM | Loss (reduction) in potency vs rSsp1a at hNaV1.2 (hNaV1.2): ≥ 10 fold | IC50 (hNaV1.3): > 3000 nM

CC(C)C[C@H](NC(=O)[C@H](CC(=O)O)NC(=O)[C@H](Cc1ccc(O)cc1)NC(=O)[C@H](CCCNC(=N)N)NC(=O)[C@@H]1CSSC[C@@H]2NC(=O)[C@H](CCCCN)NC(=O)[C@H](CC(N)=O)NC(=O)[C@H](CC(N)=O)NC(=O)[C@H](CC(N)=O)NC(=O)[C@@H]3CCCN3C(=O)[C@H](CC(=O)O)NC(=O)[C@@H]3CSSC[C@H](NC(=O)[C@H](C(C)C)NC(=O)[C@H](Cc4ccc(O)cc4)NC(=O)CNC(=O)[C@H](CCC(=O)O)NC(=O)[C@H](CSSC[C@H](NC(=O)[C@H](CC(=O)O)NC(=O)CN)C(=O)N[C@@H](CC(C)C)C(=O)NCC(=O)N[C@@H](Cc4c[nH]c5ccccc45)C(=O)N[C@@H](Cc4ccccc4)C(=O)N[C@@H](CO)C(=O)NCC(=O)N3)NC2=O)C(=O)N[C@@H](Cc2c[nH]cn2)C(=O)N[C@@H](Cc2c[nH]c3ccccc23)C(=O)N[C@@H](CCCCN)C(=O)N[C@@H](Cc2ccc(O)cc2)C(=O)N2CCC[C@H]2C(=O)N[C@@H](Cc2ccccc2)C(=O)N1)C(=O)O [W28F]
IC50 (hNaV1.7): 544 nM | IC50 (hNaV1.2): > 3000 nM | IC50 (hNaV1.3): > 3000 nM

CC(C)C[C@H](NC(=O)[C@H](CC(=O)O)NC(=O)[C@H](Cc1ccc(O)cc1)NC(=O)[C@H](CCCNC(=N)N)NC(=O)[C@@H]1CSSC[C@@H]2NC(=O)[C@H](CCCCN)NC(=O)[C@H](CC(N)=O)NC(=O)[C@H](CC(N)=O)NC(=O)[C@H](CC(N)=O)NC(=O)[C@@H]3CCCN3C(=O)[C@H](CC(=O)O)NC(=O)[C@@H]3CSSC[C@H](NC(=O)[C@H](C(C)C)NC(=O)[C@H](Cc4ccc(O)cc4)NC(=O)CNC(=O)[C@H](CCC(=O)O)NC(=O)[C@H](CSSC[C@H](NC(=O)[C@H](CC(=O)O)NC(=O)CN)C(=O)N[C@@H](CC(C)C)C(=O)NCC(=O)N[C@@H](Cc4c[nH]c5ccccc45)C(=O)N[C@@H](Cc4ccccc4)C(=O)N[C@@H](CO)C(=O)NCC(=O)N3)NC2=O)C(=O)N[C@@H](Cc2c[nH]cn2)C(=O)N[C@@H](Cc2c[nH]c3ccccc23)C(=O)N[C@@H](CCCCN)C(=O)N[C@@H](Cc2ccc(O)cc2)C(=O)N2CCC[C@H]2C(=O)N[C@@H](CCCCN)C(=O)N1)C(=O)O [W28K] (H-GDCLGWFSGCDPNNNKCCEGYVCHWKYPKCRYDL-OH; disulfide 3-18, 10-23, 17-30 (inferred); N-terminus and C-terminus assumed)
IC50 (hNaV1.7): > 3000 nM | IC50 (hNaV1.2): > 3000 nM | IC50 (hNaV1.3): > 3000 nM

CC(C)C[C@H](NC(=O)[C@H](CC(=O)O)NC(=O)[C@H](Cc1ccc(O)cc1)NC(=O)[C@H](CCCNC(=N)N)NC(=O)[C@@H]1CSSC[C@@H]2NC(=O)[C@H](CCCCN)NC(=O)[C@H](CC(N)=O)NC(=O)[C@H](CC(N)=O)NC(=O)[C@H](CC(N)=O)NC(=O)[C@@H]3CCCN3C(=O)[C@H](CC(=O)O)NC(=O)[C@@H]3CSSC[C@H](NC(=O)[C@H](C(C)C)NC(=O)[C@H](C)NC(=O)CNC(=O)[C@H](CCC(=O)O)NC(=O)[C@H](CSSC[C@H](NC(=O)[C@H](CC(=O)O)NC(=O)CN)C(=O)N[C@@H](CC(C)C)C(=O)NCC(=O)N[C@@H](Cc4c[nH]c5ccccc45)C(=O)N[C@@H](Cc4ccccc4)C(=O)N[C@@H](CO)C(=O)NCC(=O)N3)NC2=O)C(=O)N[C@@H](Cc2c[nH]cn2)C(=O)N[C@@H](Cc2c[nH]c3ccccc23)C(=O)N[C@@H](CCCCN)C(=O)N[C@@H](Cc2ccc(O)cc2)C(=O)N2CCC[C@H]2C(=O)N[C@@H](Cc2c[nH]c3ccccc23)C(=O)N1)C(=O)O [Y20A]
IC50 (hNaV1.7): 1270 nM | IC50 (hNaV1.2): 1840 nM | IC50 (hNaV1.3): > 3000 nM | Activity at hNaV1.3 (in words) (hNaV1.3; alanine mutant vs rSsp1a): inactive

CC(C)C[C@H](NC(=O)[C@H](CC(=O)O)NC(=O)[C@H](Cc1ccc(O)cc1)NC(=O)[C@H](CCCNC(=N)N)NC(=O)[C@@H]1CSSC[C@@H]2NC(=O)[C@H](CCCCN)NC(=O)[C@H](CC(N)=O)NC(=O)[C@H](CC(N)=O)NC(=O)[C@H](CC(N)=O)NC(=O)[C@@H]3CCCN3C(=O)[C@H](CC(=O)O)NC(=O)[C@@H]3CSSC[C@H](NC(=O)[C@H](C(C)C)NC(=O)[C@H](CC(C)C)NC(=O)CNC(=O)[C@H](CCC(=O)O)NC(=O)[C@H](CSSC[C@H](NC(=O)[C@H](CC(=O)O)NC(=O)CN)C(=O)N[C@@H](CC(C)C)C(=O)NCC(=O)N[C@@H](Cc4c[nH]c5ccccc45)C(=O)N[C@@H](Cc4ccccc4)C(=O)N[C@@H](CO)C(=O)NCC(=O)N3)NC2=O)C(=O)N[C@@H](Cc2c[nH]cn2)C(=O)N[C@@H](Cc2c[nH]c3ccccc23)C(=O)N[C@@H](CCCCN)C(=O)N[C@@H](Cc2ccc(O)cc2)C(=O)N2CCC[C@H]2C(=O)N[C@@H](Cc2c[nH]c3ccccc23)C(=O)N1)C(=O)O [Y20L]
IC50 (hNaV1.7): 288 nM | IC50 (hNaV1.2): 340 nM | IC50 (hNaV1.3): 476 nM

Source: article PMC10682951, “Structure-function and rational design of a spider toxin Ssp1a at human voltage-gated sodium channel subtypes” (Frontiers in Pharmacology, 2023)
